Assay [1] concerns the target T1, IDH2 R140Q (Homo sapiens, UniProt P48735, R140Q).
T1 sequence (P48735 40-452 R140Q): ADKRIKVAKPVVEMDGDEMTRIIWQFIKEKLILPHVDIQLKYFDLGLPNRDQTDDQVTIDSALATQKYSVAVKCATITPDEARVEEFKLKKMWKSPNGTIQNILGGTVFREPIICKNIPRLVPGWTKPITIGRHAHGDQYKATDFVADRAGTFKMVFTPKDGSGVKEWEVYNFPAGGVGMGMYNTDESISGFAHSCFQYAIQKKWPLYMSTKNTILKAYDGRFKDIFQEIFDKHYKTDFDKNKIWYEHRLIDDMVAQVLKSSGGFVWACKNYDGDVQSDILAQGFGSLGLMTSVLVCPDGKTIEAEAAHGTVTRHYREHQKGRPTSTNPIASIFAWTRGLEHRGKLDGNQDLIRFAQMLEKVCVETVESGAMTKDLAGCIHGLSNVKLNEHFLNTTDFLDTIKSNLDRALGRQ
The experiment in a line: IDH2 R140Q enzymatic assay (cofactor depletion, similar format). In kind it is biochemical. To be noted: read-out: Enz R140Q.

Assay [2] concerns U87MG pLVX-IDH2 R140Q-neo cells. Description: U87MG pLVX-IDH2 R140Q-neo cell based assay, 2-HG in media by LC-MS at 48 hours. To be noted: Homo sapiens, U-87 MG. An outline of the steps: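 U87MG cells stably expressing IDH2 R140Q were seeded overnight, then exposed to compound at 0.2% final DMSO at 37 °C, 5% CO2. 2-HG in the medium was quantified by LC-MS at 48 h. Growth inhibition was read by CellTiter-Glo luminescence at 72 h.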

Assay [3] deals with T2, IDH2 R172K (Homo sapiens, UniProt P48735, R172K).
T2 sequence (P48735 40-452 R172K): T1 sequence (P48735 40-452 R140Q) with Q101R, R133K
The experiment in a line: IDH2 R172K enzymatic assay (NADPH cofactor depletion, diaphorase/resazurin readout). The assay is classed as biochemical. The settings on record: read-out: Enz R172K. How it is done:
Compounds are assayed for IDH2 R172K inhibitory activity through a cofactor depletion assay. […] The reaction is terminated by the addition of a second enzyme, diaphorase, and a corresponding substrate, resazurin. Diaphorase reduces resazurin to the highly fluorescent resorufin with the concomitant oxidation of NADPH to NADP, both halting the IDH2 reaction by depleting the available cofactor pool and facilitating quantitation of the amount of cofactor remaining after a specific time period through quantitative production of an easily detected fluorophore.
The test compound is then incubated for one hour at room temperature with the enzyme; before starting the IDH2 reaction with the addition of 10 μl of substrate mix containing 50 μM NADPH and 6.3 mM α-KG in the buffer described above. After a further one hour of incubation at room temperature, the reaction is halted and the remaining NADPH measured through conversion of resazurin to resorufin by the addition of 25 μl Stop Mix (36 μg/ml diaphorase enzyme and 60 μM resazurin; in buffer).
A general note: Resazurin is reduced to fluorescent resorufin, in cell work by metabolically active cells.

This passage reports IC50 results from patent US9512107B2, “Therapeutically active compositions and their methods of use” (Agios Pharmaceuticals, Inc., priority 2012, dated 2016).

Molecules are shown by their SMILES. Changes are numbered by the printed parent chain.

Turning to `CC(C)Nc1nc(Nc2ccccc2)nc(-c2ccccc2)n1` [Compound 100], the IC50 in assay [1], in assay [2] and in assay [3] was below 100 nM in each case.

For the compound `CC(C)Nc1nc(Cc2ccccc2)nc(Nc2ccccc2)n1` [Compound 103], the IC50 in assay [1] was 100 to 1000 nM; in assay [2], 1000 to 10000 nM; in assay [3] it was 1000 to 10000 nM.

`CC(C)Nc1nc(Nc2ccccc2)nc(-c2ccccc2NS(C)(=O)=O)n1` [Compound 109]: the IC50 was 100 to 1000 nM in assay [1], 1000 to 10000 nM in assay [2] and 1000 to 10000 nM in assay [3].

Take `c1ccc(Nc2nc(NC3CC3)nc(-c3ccccc3)n2)cc1` [Compound 110]: the results for the IC50 in assay [1], in assay [2] and in assay [3] were below 100 nM, below 100 nM and 100 to 1000 nM, respectively.

For the compound `c1ccc(Nc2nc(NCC3CC3)nc(-c3ccccc3)n2)cc1` [Compound 111], the IC50 in assay [1], in assay [2] and in assay [3] was below 100 nM throughout.

On to `CC(C)(C)Nc1nc(Nc2ccccc2)nc(-c2ccccc2)n1` [Compound 112], for which the values for the IC50 in assay [1], in assay [2] and in assay [3] were below 100 nM, 100 to 1000 nM and 100 to 1000 nM, respectively.

On to `c1ccc(Nc2nc(NC3CCCCC3)nc(-c3ccccc3)n2)cc1` [Compound 113], for which the results for the IC50 in assay [1], in assay [2] and in assay [3] were below 100 nM, below 100 nM and 100 to 1000 nM, respectively.

Turning to `CC(C)Nc1nc(Nc2ccccc2)nc(-c2cccnc2)n1` [Compound 114], the figures for the IC50 in assay [1], in assay [2] and in assay [3] were 100 to 1000 nM, 1000 to 10000 nM and 1000 to 10000 nM, respectively.

Regarding `COc1cccc(-c2nc(Nc3ccccc3)nc(NC(C)C)n2)c1` [Compound 115], the figures for the IC50 in assay [1], in assay [2] and in assay [3] were below 100 nM, 100 to 1000 nM and 100 to 1000 nM, respectively.

For `CC(C)Nc1nc(Nc2ccccc2)nc(-c2ccc(F)cc2F)n1` [Compound 118], the IC50 in assay [1] was below 100 nM; in assay [2], 100 to 1000 nM; in assay [3], 100 to 1000 nM.

For `CC(C)Nc1nc(Nc2ccccc2)nc(-c2ccnn2C)n1` [Compound 119], the IC50 in assay [1] is 100 to 1000 nM; in assay [2], 1000 to 10000 nM; in assay [3], above 10000 nM.

For `COc1ccccc1-c1nc(Nc2ccccc2)nc(NC(C)C)n1` [Compound 120], the IC50 in assay [1] was below 100 nM; in assay [2], below 100 nM; in assay [3], 100 to 1000 nM.

For `CC(C)Nc1nc(Nc2ccccc2)nc(-c2ccccc2Cl)n1` [Compound 121], the IC50 in assay [1], in assay [2] and in assay [3] was below 100 nM throughout.

Turning to `CC(C)Nc1nc(Nc2ccccc2)nc(-c2ccc(Cl)cc2)n1` [Compound 122], the IC50 in assay [1] lay in the range of 100 to 1000 nM; in assay [2] it was 1000 to 10000 nM; in assay [3], 1000 to 10000 nM.

Regarding `COc1cc(Cl)cc(-c2nc(Nc3cc(F)cc(F)c3)nc(NC(C)C)n2)n1` [Compound 486, 6-(4-chloro-6-methoxypyridin-2-yl)-N^2-(3,5-difluorophenyl)-N^4-isopropyl-1,3,5-triazine-2,4-diamine], the IC50 in assay [2] and in assay [3] was 100 to 1000 nM each time.

As for `COc1cc(F)cc(-c2nc(Nc3ccnc(C(F)(F)F)c3)nc(NC(C)C)n2)c1` [Compound 662, 6-(3-fluoro-5-methoxyphenyl)-N2-isopropyl-N4-(2-(trifluoromethyl)pyridin-4-yl)-1,3,5-triazine-2,4-diamine], the IC50 in assay [2] was in the range of 100 to 1000 nM; in assay [3], 1000 to 10000 nM.

Regarding `CC(C)Nc1nc(Nc2ccnc(C(F)(F)F)c2)nc(-c2cccc(C(C)O)c2)n1` (centres unmarked) [Compound 663, 1-(3-(4-(isopropylamino)-6-((2-(trifluoromethyl)pyridin-4-yl)amino)-1,3,5-triazin-2-yl)phenyl)ethanol], the IC50 in assay [2] and in assay [3] was below 100 nM in each case.

On to `CC(C)Nc1nc(Nc2ccnc(C(F)(F)F)c2)nc(-c2cc(O)cc(CO)c2)n1` [Compound 665, 3-(hydroxymethyl)-5-(4-(isopropylamino)-6-((2-(trifluoromethyl)pyridin-4-yl)amino)-1,3,5-triazin-2-yl)phenol], for which the IC50 in assay [2] and in assay [3] was below 100 nM each time.
